Test results reported in PubChem BioAssay AID330 (DTP/NCI, 2004).
Where “and” joins values, the source holds several entries; their conditions need not be identical. Equal values may be shown once. Inconclusive results and toxic doses are left out.

System: P388 leukemia ip, CD2F1 mice, survival T/C
Assay: NCI In Vivo Anticancer Drug Screen. Data for tumor model P388 Leukemia (intraperitoneal) in CD2F1 (CDF1) mice
Conditions: endpoint: median survival time, higher = longer survival
Outline: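 Mice carrying the transplanted tumor received test compound or vehicle. Survival was recorded in each group, and the value is the treated-group measurement divided by that of the vehicle-treated control group.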

[1] = dose: 100.0 mg/kg/injection, schedule: Q01DX001 (ip), vehicle: saline with Tween-80
[2] = dose: 200.0 mg/kg/injection, schedule: Q01DX001 (ip), vehicle: saline with Tween-80
[3] = dose: 400.0 mg/kg/injection, schedule: Q01DX001 (ip), vehicle: saline with Tween-80
[4] = dose: 60.0 mg/kg/injection, schedule: Q01DX005 (ip), vehicle: saline with Tween-80
[5] = dose: 12.5 mg/kg/injection, schedule: Q01DX009 (ip), vehicle: saline with Tween-80
[6] = dose: 25.0 mg/kg/injection, schedule: Q01DX009 (ip), vehicle: saline with Tween-80
[7] = dose: 50.0 mg/kg/injection, schedule: Q01DX009 (ip), vehicle: saline with Tween-80
[8] = dose: 50.0 mg/kg/injection, schedule: Q01DX005 (ip), vehicle: saline with Tween-80
[9] = dose: 100.0 mg/kg/injection, schedule: Q01DX005 (ip), vehicle: saline with Tween-80
[10] = dose: 200.0 mg/kg/injection, schedule: Q01DX005 (ip), vehicle: saline with Tween-80
[11] = dose: 100.0 mg/kg/injection, schedule: Q01DX009 (ip), vehicle: saline with Tween-80
[12] = dose: 200.0 mg/kg/injection, schedule: Q01DX009 (ip), vehicle: saline with Tween-80
[13] = dose: 25.0 mg/kg/injection, schedule: Q01DX009 (ip), vehicle: water
[14] = dose: 50.0 mg/kg/injection, schedule: Q01DX009 (ip), vehicle: water
[15] = dose: 3.12 mg/kg/injection, schedule: Q01DX009 (ip), vehicle: Klucel (hydroxypropylcellulose) (HPC)
[16] = dose: 6.25 mg/kg/injection, schedule: Q01DX009 (ip), vehicle: Klucel (hydroxypropylcellulose) (HPC)

With Oc1ccc2ccccc2c1/C=N/c1nc(-c2ccc(Cl)cc2)cs1 the T/C [1] was 89 % of control, the T/C [2] was 90 % of control and the T/C [3] was 92 % of control.

CC(=O)C1=CN(Cc2ccccc2)C=C(C)C1 was tested, and the T/C (dose: 50.0 mg/kg/injection, schedule: Q01DX009 (ip), vehicle: saline) was 99 % of control, the T/C (dose: 100.0 mg/kg/injection, schedule: Q01DX009 (ip), vehicle: saline) was 96 % of control and the T/C (dose: 200.0 mg/kg/injection, schedule: Q01DX009 (ip), vehicle: saline) was 96 % of control.

For c1ccc(-c2c3ccccc3c(-c3ccccc3)c3c(-c4ccccc4)c4ccccc4c(-c4ccccc4)c23)cc1, the T/C (dose: 15.0 mg/kg/injection, schedule: Q01DX005 (ip), vehicle: saline with Tween-80) was 105 % of control, the T/C (dose: 30.0 mg/kg/injection, schedule: Q01DX005 (ip), vehicle: saline with Tween-80) was 106 % of control and the T/C [4] was 91 % of control and 94 % of control.

With Cc1ccc2c(CC(C)(C)[N+]3(C)CCCC3)ccc(C(C)C)cc1-2 the T/C (dose: 100.0 mg/kg/injection, schedule: Q04DX002 (ip), vehicle: Klucel (hydroxypropylcellulose) (HPC)) was 114 % of control, the T/C (dose: 200.0 mg/kg/injection, schedule: Q04DX002 (ip), vehicle: Klucel (hydroxypropylcellulose) (HPC)) was 112 % of control and the T/C (dose: 400.0 mg/kg/injection, schedule: Q04DX002 (ip), vehicle: Klucel (hydroxypropylcellulose) (HPC)) was 105 % of control.

COC(=O)c1cc2cc3c(c(O)c2c(=O)o1)OC1(Cc2c(O)c4c(c(O)c2O1)C(=O)C(OC)CC4=O)CC3O (stereo unspecified) was tested, and the T/C [5] was 93 % of control, the T/C [6] was 100 % of control and the T/C [7] was 116 % of control.

With [Br][Pd][Br].[NH-]C1CCCC2CCC[N-]C12 (stereo unspecified) the T/C (dose: 12.5 mg/kg/injection, schedule: Q04DX002 (ip), vehicle: saline with Tween-80) was 93 % of control, the T/C (dose: 25.0 mg/kg/injection, schedule: Q04DX002 (ip), vehicle: saline with Tween-80) was 93 % of control and the T/C (dose: 50.0 mg/kg/injection, schedule: Q04DX002 (ip), vehicle: saline with Tween-80) was 98 % of control.

For CCC(c1ccc(OC)cc1)C(NCC(=O)N/N=C/c1ccc(O)c(OC)c1)c1ccc(OC)cc1 (stereo unspecified), the T/C [1] was 107 % of control, the T/C [2] was 107 % of control and the T/C [3] was 101 % of control.

In the case of C=C1C(=O)OC2/C=C(\COC(C)=O)CC/C=C(/COC(=O)C(C)CC)CC(O)C12 (stereo unspecified) (tested in a mixture with another compound), the T/C (dose: 2.0 mg/kg/injection, schedule: Q01DX009 (ip), vehicle: Klucel (hydroxypropylcellulose) (HPC)) is reported as 119 % of control, the T/C (dose: 4.0 mg/kg/injection, schedule: Q01DX009 (ip), vehicle: Klucel (hydroxypropylcellulose) (HPC)) is reported as 114 % of control and the T/C (dose: 8.0 mg/kg/injection, schedule: Q01DX009 (ip), vehicle: Klucel (hydroxypropylcellulose) (HPC)) is reported as 113 % of control. For the same molecule, the T/C (dose: 16.0 mg/kg/injection, schedule: Q01DX009 (ip), vehicle: Klucel (hydroxypropylcellulose) (HPC)) was 111 % of control and the T/C (dose: 32.0 mg/kg/injection, schedule: Q01DX009 (ip), vehicle: Klucel (hydroxypropylcellulose) (HPC)) was 120 % of control.

In the case of CC1(C)COC(=O)C(C#N)=C1CBr, the T/C (dose: 12.5 mg/kg/injection, schedule: Q01DX005 (ip), vehicle: Klucel (hydroxypropylcellulose) (HPC)) is reported as 105 % of control, the T/C (dose: 25.0 mg/kg/injection, schedule: Q01DX005 (ip), vehicle: Klucel (hydroxypropylcellulose) (HPC)) is reported as 105 % of control and the T/C (dose: 50.0 mg/kg/injection, schedule: Q01DX005 (ip), vehicle: Klucel (hydroxypropylcellulose) (HPC)) is reported as 99 % of control and 116 % of control.

O=C(Oc1ccccc1)c1cc(O)c(O)c(O)c1 was tested, and the T/C (dose: 25.0 mg/kg/injection, schedule: Q01DX005 (ip), vehicle: saline with Tween-80) was 100 % of control and 95 % of control, the T/C [8] was 100 % of control and 101 % of control and the T/C [9] was 99 % of control and 100 % of control. For the same molecule, the T/C [10] was 101 % of control and 116 % of control and the T/C (dose: 400.0 mg/kg/injection, schedule: Q01DX005 (ip), vehicle: saline with Tween-80) was 109 % of control.

For C/C([O-])=C(/c1nc(-c2ccc([N+](=O)[O-])o2)no1)[n+]1cc(C)ccc1C, the T/C (dose: 6.25 mg/kg/injection, schedule: Q01DX009 (ip), vehicle: saline with Tween-80) was 92 % of control, the T/C [5] was 94 % of control and the T/C [6] was 97 % of control. The T/C [7] was 94 % of control.

Nc1nc(N)c2cc(Sc3cccc(C(F)(F)F)c3)ccc2n1 was tested, and the T/C [11] was 172 % of control and the T/C [12] was 94 % of control.

For COc1cc2c(C)nc3c4cc5c(cc4ccc3c2cc1OC)OCO5, the T/C [13] was 108 % of control and the T/C [14] was 95 % of control.

With CCCCCC(=O)O[C@H]1CC[C@@H]2[C@H]1[C@@H]1CC[C@H]3O[C@]31C2(C)C the T/C (dose: 60.0 mg/kg/injection, schedule: Q01DX005 (ip), vehicle: Klucel (hydroxypropylcellulose) (HPC)) was 111 % of control, the T/C (dose: 120.0 mg/kg/injection, schedule: Q01DX005 (ip), vehicle: Klucel (hydroxypropylcellulose) (HPC)) was 111 % of control and the T/C (dose: 240.0 mg/kg/injection, schedule: Q01DX005 (ip), vehicle: Klucel (hydroxypropylcellulose) (HPC)) was 121 % of control.

With [O-][n+]1ccccc1C[P+](c1ccccc1)(c1ccccc1)c1ccccc1 the T/C (dose: 6.25 mg/kg/injection, schedule: Q01DX009 (ip), vehicle: water) was 99 % of control, the T/C (dose: 12.5 mg/kg/injection, schedule: Q01DX009 (ip), vehicle: water) was 100 % of control and 86 % of control and the T/C [13] was 95 % of control. The T/C [14] was 100 % of control and 98 % of control.

O=c1ccs[nH]1 was tested, and the T/C [15] was 100 % of control, the T/C [16] was 102 % of control and 104 % of control and 117 % of control and the T/C (dose: 12.5 mg/kg/injection, schedule: Q01DX009 (ip), vehicle: Klucel (hydroxypropylcellulose) (HPC)) was 102 % of control and 114 % of control and 124 % of control. The T/C (dose: 25.0 mg/kg/injection, schedule: Q01DX009 (ip), vehicle: Klucel (hydroxypropylcellulose) (HPC)) was 100 % of control and 90 % of control.

With O=C(CC(=O)C(F)(F)F)c1csc2ccccc12 the T/C [5] was 95 % of control, the T/C (dose: 12.5 mg/kg/injection, schedule: Q04DX003 (ip), vehicle: saline with Tween-80) was 100 % of control and the T/C [6] was 100 % of control. The T/C (dose: 25.0 mg/kg/injection, schedule: Q04DX003 (ip), vehicle: saline with Tween-80) was 100 % of control, the T/C [7] was 109 % of control and the T/C (dose: 50.0 mg/kg/injection, schedule: Q04DX003 (ip), vehicle: saline with Tween-80) was 109 % of control.

In the case of O=[N+]([O-])c1ccc(N=NN2CCOC2)cc1, the T/C [8] is reported as 99 % of control, the T/C [9] is reported as 103 % of control and the T/C [10] is reported as 105 % of control.

In the case of CCN(CC)CCCNc1c2c(nc3c(Cl)cccc13)CCCC2, the T/C [8] is reported as 100 % of control and the T/C [9] is reported as 100 % of control.

CC(=O)[O][Hg][c]1c(N)c(Cl)cc(C)c1F was tested, and the T/C [15] was 91 % of control and the T/C [16] was 86 % of control.

With COC(=O)CCCCC(=O)OC the T/C (dose: 100.0 mg/kg/injection, schedule: Q04DX003 (ip), vehicle: saline) was 109 % of control, the T/C (dose: 200.0 mg/kg/injection, schedule: Q04DX003 (ip), vehicle: saline) was 109 % of control and the T/C (dose: 400.0 mg/kg/injection, schedule: Q04DX003 (ip), vehicle: saline) was 109 % of control.

In the case of COP(=O)(O)OC.[Th], the T/C [7] is reported as 118 % of control, the T/C [11] is reported as 88 % of control and the T/C [12] is reported as 90 % of control.

COC(=O)C1(CC(=O)CC(=O)CC2(C(=O)OC)NC(=S)NC(=O)C2C#N)NC(=S)NC(=O)C1C#N (stereo unspecified) was tested, and the T/C [4] was 106 % of control, the T/C (dose: 120.0 mg/kg/injection, schedule: Q01DX005 (ip), vehicle: saline with Tween-80) was 100 % of control and the T/C (dose: 240.0 mg/kg/injection, schedule: Q01DX005 (ip), vehicle: saline with Tween-80) was 100 % of control.

In the case of c1ccc(-c2cc3cc4c(cc3[nH]2)Oc2ccccc2O4)cc1, the T/C (dose: 17.5 mg/kg/injection, schedule: Q01DX009 (ip), vehicle: Klucel (hydroxypropylcellulose) (HPC)) is reported as 100 % of control and 103 % of control and 109 % of control, the T/C (dose: 35.0 mg/kg/injection, schedule: Q01DX009 (ip), vehicle: Klucel (hydroxypropylcellulose) (HPC)) is reported as 100 % of control (2×) and 105 % of control and the T/C (dose: 70.0 mg/kg/injection, schedule: Q01DX009 (ip), vehicle: Klucel (hydroxypropylcellulose) (HPC)) is reported as 100 % of control and 103 % of control and 122 % of control. The T/C (dose: 140.0 mg/kg/injection, schedule: Q01DX009 (ip), vehicle: Klucel (hydroxypropylcellulose) (HPC)) was 100 % of control.

O=CC1N=C1c1ccccc1 (stereo unspecified) was tested, and the T/C (dose: 100.0 mg/kg/injection, schedule: Q01DX001 (ip), vehicle: Klucel (hydroxypropylcellulose) (HPC)) was 88 % of control and the T/C (dose: 200.0 mg/kg/injection, schedule: Q01DX001 (ip), vehicle: Klucel (hydroxypropylcellulose) (HPC)) was 90 % of control.
